The structures appear in SMILES notation.

This series is described as follows: gradient 5% acetonitrile 3 min, to 50% in 2 min, to 85% in 15 min, held 3 min, 100 µL/min. The following applies: column: Zorbax Extend-C18 2.1 x 50 mm; eluents: water / acetonitrile, 0.1% formic acid. The method in brief: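 The mobile phases were water and acetonitrile, each with 0.1% formic acid, pumped at 100 μL/min through a Zorbax Extend-C18 column (2.1 × 50 mm, 1.8 μm). Pure standards were injected as mixtures of ~100 molecules and detected by a quadrupole time-of-flight mass spectrometer in positive and negative ionization mode. Retention time came from computationally picked adduct peaks, each inspected by hand.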
`CCOC(=O)N1CCc2c(sc(NC(=O)c3cn(C)nc3OC)c2C#N)C1` registered an RP-LC retention time of 776 s. Take `O=C(Cn1cnc2c(-c3ccc(F)cc3)csc2c1=O)N1CCCC1`: the RP-LC retention time came to 783 s. In the case of `Cc1ccccc1-c1noc(Cn2ccn(Cc3ccc(Cl)cc3)c(=O)c2=O)n1`, the RP-LC retention time was 943 s.

`O=S(=O)(Nc1ccc(Br)cn1)c1ccccc1`: the RP-LC retention time was 780 s. Compound `Cn1cc2c3c(cccc31)CN(C(=O)c1ccccc1Br)CC2` gave an RP-LC retention time of 968 s. For `O=C(Cn1cnc(-c2noc(-c3ccccc3)n2)c1)NCc1ccccc1`, the RP-LC retention time was found to be 803 s. The figure for `Cc1noc(-c2ccc(NC(=O)C3CC(=O)N(c4ccccc4)C3)cc2)n1` (stereo not drawn) is 727 s. As to `Cn1ncc(N2CCC(C(=O)Nc3ccc4oc(-c5ccncc5)nc4c3)C2)cc1=O` (stereo not drawn), the RP-LC retention time came out at 642 s. The figure for `Cc1nn2c(nnc3c(=O)n(CCc4c[nH]c5ccc(F)cc45)ccc32)c1-c1ccc(F)cc1` is 961 s. For `O=C(Cc1nnc(-c2ccccc2)o1)NC1CCCC1`, the RP-LC retention time came to 675 s.

In turn, `Cc1ccccc1C(=O)Nc1nnc(SCc2nnc(-c3ccccc3C)o2)s1` showed an RP-LC retention time of 948 s. In the case of `O=C(CNC(=O)c1cccc(Cl)c1)Nc1nc2ccccc2[nH]1`, the RP-LC retention time amounted to 646 s. On to `COc1cccc(CNC(=O)c2c(C)oc3ccn(C)c(=O)c23)c1`, for which the RP-LC retention time came to 844 s. `COC(=O)c1ccc2c(=O)n(-c3cc(OC)cc(OC)c3)c(N3CCC(C(N)=O)CC3)nc2c1`: the RP-LC retention time was found to be 736 s. `COC(=O)c1cccc(NC(=O)CSc2nccc(N3CCN(c4cccc(OC)c4)CC3)n2)c1` showed an RP-LC retention time of 743 s. To `COc1cccc(C(C)NC(=O)CN2C(=O)NC3(CCCCC3)C2=O)c1` (stereo not drawn) belongs 748 s; to `CC(C)Oc1ccc(NC(=O)C2CCN(S(C)(=O)=O)c3cc(Cl)ccc3O2)cc1` (stereo not drawn), 1020 s; to `N#Cc1cccc(NC(=O)C(=O)c2ccc[nH]2)c1`, 788 s. `CC(C)N1C(=O)c2cccnc2Sc2cc(NC(=O)c3cccc(F)c3)ccc21` registered an RP-LC retention time of 901 s. `c1cncc(-c2n[nH]c(C3CCCN(Cc4ccsc4)C3)n2)c1` (stereo not drawn) came in with an RP-LC retention time of 552 s. Regarding `Cn1cnc2c(C(=O)N3CCCC3)nn(-c3ccc(Cl)cc3)c2c1=O`, the RP-LC retention time is 758 s. `COCCc1noc(C2CN(C(=O)c3ccoc3)C2)n1` registered an RP-LC retention time of 629 s. As to `Cc1ccc(-n2nnc(-c3nc(C)c(C(=O)N4CCC(C(N)=O)CC4)s3)c2C)cc1C`, the RP-LC retention time stood at 742 s.

The compound `O=C(N[C@H](Cc1ccccc1)C(=O)NCc1cscn1)c1ccccc1F` displayed an RP-LC retention time of 734 s. `COc1ccc(N2CCN(C(=O)c3cc(-c4ccncc4)cn3C)CC2)cc1`: the RP-LC retention time was determined as 599 s. `COc1ccc(OC)c(NS(=O)(=O)c2ccc3c(c2)C(=O)N(C)c2ncccc2O3)c1`: the RP-LC retention time stood at 872 s. The figure for `Cc1ccc(CN2C(=O)N(c3ccc(F)cc3)c3ncccc3S2(=O)=O)cc1` is 1100 s; for `CC(C)c1ccc(N2CC(c3nc(-c4ccc5c(c4)OCO5)no3)CC2=O)cc1` (stereo not drawn) it is 1100 s; for `COc1ccccc1CNC(=O)c1nnc(-c2ccc(S(=O)(=O)N3CCOCC3)cc2)o1` it is 858 s. The figure for `COc1ccc(NC(=O)C2CCCN(c3nnc4ccccn34)C2)cc1Cl` (stereo not drawn) is 702 s; for `O=C(CC1COc2ccccc2NC1=O)Nc1ccc(F)c(Cl)c1` (stereo not drawn) it is 788 s.

For `O=C(Cn1nc2n(c1=O)CCCCC2)NCc1ccccc1Br`, the RP-LC retention time worked out at 705 s. Turning to `Cc1ccc(Cl)cc1NC(=O)N1CCC(CC(=O)NCc2ccc(F)cc2)CC1`, the RP-LC retention time came to 849 s.

(Values after the METLIN SMRT retention time set (Domingo-Almenara et al. 2019).)
